Measurements reported in PMC5699221 (Biochemistry, 2017).

Key:
PaODH = PaODH (Pseudomonas aeruginosa, UniProt Q9HUX5); experiment: NADPH fluorescence, titrated with enzyme; format: binding
PaNAS = PaNAS (Pseudomonas aeruginosa, UniProt Q9HUX4); experiment: biochemical
[1] = tested on: N[C@H](Cc1c[nH]cn1)C(=O)O; experiment: purified protein; settings: co-substrate SAM, coupled with SaODH, NADPH, pyruvate, 50 mM Tris pH 8

PaNAS, sequence (Q9HUX4 whole entry): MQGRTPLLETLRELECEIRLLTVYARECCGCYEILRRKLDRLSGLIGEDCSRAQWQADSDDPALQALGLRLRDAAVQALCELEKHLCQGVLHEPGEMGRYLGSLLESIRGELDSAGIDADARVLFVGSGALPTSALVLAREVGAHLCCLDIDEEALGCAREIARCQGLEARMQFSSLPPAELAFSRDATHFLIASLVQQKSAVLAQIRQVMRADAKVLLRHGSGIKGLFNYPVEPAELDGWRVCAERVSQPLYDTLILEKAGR
PaODH, sequence (Q9HUX5 whole entry): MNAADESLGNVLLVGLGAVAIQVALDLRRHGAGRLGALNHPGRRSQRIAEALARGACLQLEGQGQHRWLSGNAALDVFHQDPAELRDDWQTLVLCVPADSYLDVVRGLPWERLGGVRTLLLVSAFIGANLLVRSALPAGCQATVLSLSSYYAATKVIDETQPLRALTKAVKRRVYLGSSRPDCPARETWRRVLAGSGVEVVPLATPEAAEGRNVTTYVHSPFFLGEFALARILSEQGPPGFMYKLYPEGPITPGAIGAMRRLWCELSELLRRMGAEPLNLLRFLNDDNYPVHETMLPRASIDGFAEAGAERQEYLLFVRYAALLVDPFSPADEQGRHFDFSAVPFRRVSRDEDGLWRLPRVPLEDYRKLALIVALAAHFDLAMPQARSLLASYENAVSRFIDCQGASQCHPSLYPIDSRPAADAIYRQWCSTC

`NC(=O)C1=CN([C@@H]2O[C@H](COP(=O)(O)OP(=O)(O)OC[C@H]3O[C@@H](n4cnc5c(N)ncnc54)[C@H](OP(=O)(O)O)[C@@H]3O)[C@@H](O)[C@H]2O)C=CC1` [NADPH] showed a Kd (PaODH) of 11 ± 1 µM.
`C[S+](CC[C@H](N)C(=O)O)C[C@H]1O[C@@H](n2cnc3c(N)ncnc32)[C@H](O)[C@@H]1O` (stereo partly shown) [SAM] gave a Kd (PaNAS) of 1200 ± 300 nM.
For “SaNAS (Staphylococcus aureus subsp. aureus Mu50)”, the Km [1] was 13.0 ± 0.7 µM and the kcat [1] was 1.79 ± 0.02 min⁻¹.
